Laboratory results reported in the supplement of paper PMC10627819.

Legend:
[1] = system: S. pneumoniae D39V; assay: fitness (endpoint OD595 vs no drug) (fraction); higher = more growth
Outline: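 Fitness expresses the optical density reached at the stationary-phase transition as a fraction of the robust mean of no-drug control wells. It is capped at 1. Measurements were OD595 every 30 min for 14 h at 37 °C after inoculation of 384-well plates at OD595 0.01 (30 µl, or 55 µl for S. pneumoniae), minus the first reading.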

[2] = system: B. subtilis 168; assay: Bliss interaction score (quartile over a dose matrix) (fitness difference); higher = more antagonism (negative = synergy)
Outline: (§1)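 Fitness was defined as normalised growth: OD595 at the start of stationary phase divided by the plate's robust no-drug mean and capped at 1. Single-drug fitness was inferred from combination measurements. The Bliss score is observed fitness minus the product of the single-drug values, summarised by quartiles across technical, biological and donor/recipient replicates.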

[3] = system: S. aureus DSM 20231; assay: as above
Outline: as §1

[4] = system: S. aureus Newman; assay: as above
Outline: as §1

[5] = system: S. pneumoniae D39V; assay: as above
Outline: as §1
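Throughout, for Bliss interaction score (quartile over a dose matrix): first quartile when negative (synergy) and third quartile when positive (antagonism).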
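Throughout, for fitness (endpoint OD595 vs no drug): OD595 on entry to stationary phase over no-drug wells; at most 1.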

Compound: CO/N=C(\C(=O)N[C@@H]1C(=O)N2C(C(=O)[O-])=C(C[N+]3(C)CCCC3)CS[C@H]12)c1csc(N)n1 [Cefepime] + Clc1ccc(COC(Cn2ccnc2)c2ccc(Cl)cc2Cl)c(Cl)c1 [Miconazole]
- fitness ([1]; first compound 0.007 µg/mL, partner 1.25 µg/mL): 0.985
- fitness ([1]; first compound 0.007 µg/mL, partner 2.5 µg/mL): 0.982
- fitness ([1]; first compound 0.007 µg/mL, partner 5 µg/mL): 0.965
- fitness ([1]; first compound 0.0078 µg/mL, partner 1.073 µg/mL): ≥ 1
- fitness ([1]; first compound 0.0078 µg/mL, partner 2.145 µg/mL): ≥ 1
- fitness ([1]; first compound 0.0078 µg/mL, partner 4.29 µg/mL): 0.948
- fitness ([1]; first compound 0.014 µg/mL, partner 1.25 µg/mL): 0.934
- fitness ([1]; first compound 0.014 µg/mL, partner 2.5 µg/mL): 0.969
- fitness ([1]; first compound 0.014 µg/mL, partner 5 µg/mL): 0.943
- fitness ([1]; first compound 0.0155 µg/mL, partner 1.073 µg/mL): 0.995
- fitness ([1]; first compound 0.0155 µg/mL, partner 2.145 µg/mL): 0.851
- fitness ([1]; first compound 0.0155 µg/mL, partner 4.29 µg/mL): 0.848
- fitness ([1]; first compound 0.028 µg/mL, partner 1.25 µg/mL): 0.87
- fitness ([1]; first compound 0.028 µg/mL, partner 2.5 µg/mL): 0.872
- fitness ([1]; first compound 0.028 µg/mL, partner 5 µg/mL): 0.861
- fitness ([1]; first compound 0.031 µg/mL, partner 4.29 µg/mL): 0.491
- Bliss interaction score [2]: 0.0393
- Bliss interaction score [3]: -0.109
- Bliss interaction score [4]: -0.0643
- Bliss interaction score [5]: 0.0753

Compound: CC1(C)S[C@@H]2[C@H](NC(=O)[C@H](N)c3ccc(O)cc3)C(=O)N2[C@H]1C(=O)O [Amoxicillin] + C[C@@H](O)[C@H]1C(=O)N2C(C(=O)O)=C(SCCNC=N)C[C@H]12 [Imipenem]
- fitness ([1]; first compound 0.0008 µg/mL, partner 0.005 µg/mL, one replicate): 0.971
- fitness ([1]; first compound 0.0008 µg/mL, partner 0.0065 µg/mL): 0.934
- fitness ([1]; first compound 0.0008 µg/mL, partner 0.01 µg/mL, one replicate): 0.931
- fitness ([1]; first compound 0.0008 µg/mL, partner 0.013 µg/mL): 0.908
- fitness ([1]; first compound 0.0008 µg/mL, partner 0.02 µg/mL, one replicate): 0.907
- fitness ([1]; first compound 0.0008 µg/mL, partner 0.026 µg/mL): 0.875
- fitness ([1]; first compound 0.0015 µg/mL, partner 0.005 µg/mL): 0.928
- fitness ([1]; first compound 0.0015 µg/mL, partner 0.0065 µg/mL): 0.927
- fitness ([1]; first compound 0.0015 µg/mL, partner 0.01 µg/mL): 0.934
- fitness ([1]; first compound 0.0015 µg/mL, partner 0.013 µg/mL): 0.919
- fitness ([1]; first compound 0.0015 µg/mL, partner 0.02 µg/mL): 0.907
- fitness ([1]; first compound 0.0015 µg/mL, partner 0.026 µg/mL): 0.859
- fitness ([1]; first compound 0.003 µg/mL, partner 0.005 µg/mL): 0.888
- fitness ([1]; first compound 0.003 µg/mL, partner 0.0065 µg/mL): 0.842
- fitness ([1]; first compound 0.003 µg/mL, partner 0.01 µg/mL): 0.882
- fitness ([1]; first compound 0.003 µg/mL, partner 0.013 µg/mL): 0.869
- fitness ([1]; first compound 0.003 µg/mL, partner 0.02 µg/mL): 0.866
- fitness ([1]; first compound 0.003 µg/mL, partner 0.026 µg/mL): 0.796
- fitness ([1]; first compound 0.006 µg/mL, partner 0.005 µg/mL, one replicate): 0.431
- fitness ([1]; first compound 0.006 µg/mL, partner 0.01 µg/mL, one replicate): 0.412
- fitness ([1]; first compound 0.006 µg/mL, partner 0.02 µg/mL, one replicate): 0.373
- Bliss interaction score [2]: 0.189
- Bliss interaction score [3]: -0.0413
- Bliss interaction score [4]: 0.0343
- Bliss interaction score [5]: -0.058

Compound: C[C@H]1COc2c(N3CCN(C)CC3)c(F)cc3c(=O)c(C(=O)O)cn1c23 [Levofloxacin] + CO[C@H]1/C=C/O[C@@]2(C)Oc3c(C)c(O)c4c(O)c(c(/C=N/N5CCN(C)CC5)c(O)c4c3C2=O)NC(=O)/C(C)=C\C=C\[C@H](C)[C@H](O)[C@@H](C)[C@@H](O)[C@@H](C)[C@H](OC(C)=O)[C@@H]1C [Rifampicin]
- fitness ([1]; first compound 0.1725 µg/mL, partner 0.05 µg/mL): 0.902
- fitness ([1]; first compound 0.1725 µg/mL, partner 0.2 µg/mL): 0.356
- fitness ([1]; first compound 0.2 µg/mL, partner 0.025 µg/mL, one replicate): 0.843
- fitness ([1]; first compound 0.2 µg/mL, partner 0.2 µg/mL, one replicate): 0
- fitness ([1]; first compound 0.345 µg/mL, partner 0.05 µg/mL): 0.848
- fitness ([1]; first compound 0.4 µg/mL, partner 0.025 µg/mL, one replicate): 0.805
- fitness ([1]; first compound 0.4 µg/mL, partner 0.05 µg/mL): 0.724
- fitness ([1]; first compound 0.4 µg/mL, partner 0.2 µg/mL, one replicate): 0
- fitness ([1]; first compound 0.69 µg/mL, partner 0.05 µg/mL): 0.611
- fitness ([1]; first compound 0.69 µg/mL, partner 0.2 µg/mL): 0.288
- fitness ([1]; first compound 0.8 µg/mL, partner 0.025 µg/mL, one replicate): 0.725
- fitness ([1]; first compound 0.8 µg/mL, partner 0.05 µg/mL): 0.665
- fitness ([1]; first compound 0.8 µg/mL, partner 0.2 µg/mL, one replicate): 0
- Bliss interaction score [2]: 0.0398
- Bliss interaction score [3]: 0.0251
- Bliss interaction score [4]: 0.0412
- Bliss interaction score [5]: 0.11

Compound: CN(C)C(=O)C(CCN1CCC(O)(c2ccc(Cl)cc2)CC1)(c1ccccc1)c1ccccc1 [Loperamide] + O=C1CN(/N=C/c2ccc([N+](=O)[O-])o2)C(=O)N1 [Nitrofurantoin]
- fitness ([1]; first compound 17.14 µg/mL, partner 2 µg/mL): 0.906
- fitness ([1]; first compound 17.14 µg/mL, partner 4 µg/mL): 0.924
- fitness ([1]; first compound 17.14 µg/mL, partner 8 µg/mL): 0.856
- fitness ([1]; first compound 20 µg/mL, partner 1.285 µg/mL): ≥ 1
- fitness ([1]; first compound 20 µg/mL, partner 2.57 µg/mL): 0.98
- fitness ([1]; first compound 20 µg/mL, partner 5.14 µg/mL, one replicate): ≥ 1
- fitness ([1]; first compound 34.28 µg/mL, partner 2 µg/mL): 0.904
- fitness ([1]; first compound 34.28 µg/mL, partner 4 µg/mL): 0.941
- fitness ([1]; first compound 34.28 µg/mL, partner 8 µg/mL): 0.883
- fitness ([1]; first compound 40 µg/mL, partner 1.285 µg/mL): ≥ 1
- fitness ([1]; first compound 40 µg/mL, partner 2.57 µg/mL): 0.981
- fitness ([1]; first compound 40 µg/mL, partner 5.14 µg/mL, one replicate): ≥ 1
- fitness ([1]; first compound 68.57 µg/mL, partner 2 µg/mL, one replicate): 0.901
- fitness ([1]; first compound 68.57 µg/mL, partner 4 µg/mL, one replicate): 0.914
- fitness ([1]; first compound 68.57 µg/mL, partner 8 µg/mL, one replicate): 0.851
- fitness ([1]; first compound 80 µg/mL, partner 1.285 µg/mL): 0.805
- fitness ([1]; first compound 80 µg/mL, partner 2.57 µg/mL): 0.821
- fitness ([1]; first compound 80 µg/mL, partner 5.14 µg/mL, one replicate): 0.806
- Bliss interaction score [2]: 0.0384
- Bliss interaction score [3]: 0.0206
- Bliss interaction score [4]: 0.045
- Bliss interaction score [5]: 0.106

Compound: CO/N=C(\C(=O)N[C@@H]1C(=O)N2C(C(=O)[O-])=C(C[N+]3(C)CCCC3)CS[C@H]12)c1csc(N)n1 [Cefepime] + C[C@@H](O)[C@H]1C(=O)N2C(C(=O)O)=C(SCCNC=N)C[C@H]12 [Imipenem]
- fitness ([1]; first compound 0.007 µg/mL, partner 0.005 µg/mL): 0.987
- fitness ([1]; first compound 0.007 µg/mL, partner 0.01 µg/mL): 0.984
- fitness ([1]; first compound 0.007 µg/mL, partner 0.02 µg/mL): 0.986
- fitness ([1]; first compound 0.0078 µg/mL, partner 0.0065 µg/mL): 1
- fitness ([1]; first compound 0.0078 µg/mL, partner 0.013 µg/mL): ≥ 1
- fitness ([1]; first compound 0.0078 µg/mL, partner 0.026 µg/mL): 0.995
- fitness ([1]; first compound 0.014 µg/mL, partner 0.005 µg/mL): 0.979
- fitness ([1]; first compound 0.014 µg/mL, partner 0.01 µg/mL): ≥ 1
- fitness ([1]; first compound 0.014 µg/mL, partner 0.02 µg/mL): 0.991
- fitness ([1]; first compound 0.0155 µg/mL, partner 0.0065 µg/mL): 0.971
- fitness ([1]; first compound 0.0155 µg/mL, partner 0.013 µg/mL): 0.98
- fitness ([1]; first compound 0.0155 µg/mL, partner 0.026 µg/mL): 0.915
- fitness ([1]; first compound 0.028 µg/mL, partner 0.005 µg/mL): 0.92
- fitness ([1]; first compound 0.028 µg/mL, partner 0.01 µg/mL): 0.902
- fitness ([1]; first compound 0.028 µg/mL, partner 0.02 µg/mL): 0.881
- fitness ([1]; first compound 0.031 µg/mL, partner 0.0065 µg/mL): 0.39
- fitness ([1]; first compound 0.031 µg/mL, partner 0.013 µg/mL): 0.495
- fitness ([1]; first compound 0.031 µg/mL, partner 0.026 µg/mL): 0.325
- Bliss interaction score [2]: -0.106
- Bliss interaction score [3]: -0.0424
- Bliss interaction score [4]: 0.155
- Bliss interaction score [5]: 0.068
